Where “and” joins values, the source holds several entries; their conditions need not be identical. Identical values can stand only once.
What was measured:
human sperm = assay: Computer-assisted spermicidal assay (CASA) on washed highly motile fraction of sperm; format: cell-based; settings: 3 h at 37° C.; for effect on human sperm motility: concentrations up to those used for GM-4, CASA
Protocol: All donor specimens were obtained after informed consent and in compliance with the guidelines of the Parker Hughes Institute Institutional Review Board. […] Sigma Chemical Co., St. Louis, Mo.) in the presence and absence of serial 2-fold dilutions of test substance. […] After 3 h incubation at 37° C., the sperm head centroid-derived sperm motility parameters were determined using a Hamilton Thorne Research (Danvers, Mass.) Integrated Visual Optical System (IVOS), version 10 instrument, as previously described (D'Cruz O J, et al., Biol Reprod, 1998;58:1515-26.; D'Cruz O J, et al., Mol Hum Reprod, 1998;4:683-93.; D'Cruz O J, et al., Biol Reprod, 1999;60:435-44.; D'Cruz O J, et al. Biol Reprod, 1999;60:1419-28.). The attributes of sperm kinematic parameters evaluated included numbers of motile (MOT) and progressively (PRG) motile sperm; curvilinear velocity (VCL); average path velocity (VAP); straight-line velocity (VSL); beat-cross frequency (BCF); and the amplitude of lateral head displacement (ALH) and the derivatives, straightness (STR) and linearity (LIN). Data from each individual cell track were recorded and analyzed. For each aliquot sampled, >200 sperm were analyzed. The percentage motilities were compared with those of sham-treated control suspensions of motile sperm.

Solubility of WHI-07 = format: physicochemical; settings: for solubility at 2 h: thermodynamic from solid, n = 3
Protocol: (§1) After the drug was completely dissolved in octanol, 5 ml of water was added to each octanol solution. The mixtures were handshaken vigorously for 10 min, and afterward let to stand overnight until a complete phase separation occurred.
The solubility of WHI-07 in Captex® 300 and polyethylene glycol 300 was carried out using UV-Vis spectrophotometer at 272 nm.
Calibration curve: Two stock solutions of WHI-07 were prepared in ethanol at concentrations of 4.2 mg/ml and 3.85 mg/ml respectively. The plot of the calibration curve is shown in Curve 1.
Appropriate amounts of WHI-07 and Captex® 300 or PEG300 were weighed and placed in glass containers. Each sample was stirred with a stir bar at ambient temperature for 2 hours. Each sample was then filtered through 0.45 μm filter, and diluted with ethanol for UV-Vis measurement.

[1] = Octanol/water partition coefficient of WHI-07; format: physicochemical
Protocol: as §1
Samples of water and octanol were taken from each mixture, and directly injected into the HPLC for analysis. The peak area ratios represent the partition coefficient.

[2] = cited from earlier work

Molecule: O=C([O-])c1ccccc1.[Na+] [sodium benzoate]
- effect on human sperm motility (human sperm): little or no inhibitory effects

Molecule: COC(=O)C(C)NP(=O)(OC[C@H]1O[C@@H](N2C(=O)NC(=O)C(C)(Br)C2OC)CC1N=[N+]=[N-])Oc1ccc(Br)cc1 (mixture of isomers) [WHI-07, (5R,6R)-and (5S,6S)-5-bromo-6-methoxy-5,6-dihydro-AZT-5′-(para-bromophenylmethoxyalaninyl phosphate)]
- solubility in oil (medium chain triglyceride) (Solubility of WHI-07; medium chain triglyceride): 4.1%
- solubility at 2 h (Solubility of WHI-07; oil or lipid, in Captex® 300, ambient temperature): 40.6 mg/mL
- solubility at 2 h (Solubility of WHI-07; organic solvent or mixture, in PEG300, ambient temperature): 132 mg/mL
- solubility in polyethylene glycol 300 (Solubility of WHI-07; polyethylene glycol 300): 13.1%
- solubility in water (Solubility of WHI-07; water): < 0.003%
- logP ([1]; octanol/water, average of four samples, read-out: Octanol/Water partition coefficient Log KD): 2.05
- Peak area ratio Octanol/water ([1]; single samples 1-4, HPLC): 113.9 and 111.3 and 115.8 and 109.2

Molecule: CC(O)CO (stereo not drawn) [propylene glycol, propane-1,2-diol]
- EC50 (concentration that decreased the proportion of motile sperm by 50%) (human sperm): > 4.2%
- effect on human sperm motility (human sperm): partially spermicidal at the highest concentration tested

Molecule: isononyl-phenyl-polyoxyethylene (9) ether [N-9]
- average 6-month pregnancy rate ([2]; users of N-9, several large studies): 26%
- effectiveness in preventing pregnancy ([2]; users of N-9): approximately 75%

Source: patent US7064114B2, “Gel-microemulsion formulations” (priority 1999, dated 2006)
